Experiments:
[1] = test system: Outpatients with active rheumatoid arthritis; assay: Clinical study of Anti-Rheumatoid Arthritis Liquor (ARL) versus active control (MTX combination); format: in vivo, human; details: for number of patients with 50% improvement (R50) / number of patients with 75% improvement (R75) / number of patients with 100% improvement (R100) / % of patients with 50% improvement (R50) / % of patients with 75% improvement (R75) / % of patients with 100% improvement (R100): 20 patients per group
Description: Outpatients with active rheumatoid arthritis, according to the classification criteria of the American Arthritis College, without other significant medical conditions were recruited. 40 patients were recruited, 7 male and 33 female. Their ages were ranged from 28-67 years old with average of 46.8 years old. The disease duration of the patients ranged from 0.4 to 13 years.
[…] Observe group, 20 patients, was treated with ARL (30 ml/d). It was taken before sleep or equally divided to be taken in the morning and evening.
The outcome measurements for the both groups were divided to signs and symptoms, including: rest pain assessment, duration of morning stiffness, number of tender joint and the index of tenderness, number of swelling joints and the swelling index, grip strength, joint function, erythrocyte sedimentation rate, C reaction protein, and rheumatoid factor. The individual parameter improvement was calculated through the following formula:
The total improvement was used to compare the efficacy between the two groups. In order to accurately reflect the drug efficacy, 50% improvement, 75% improvement, and 100% improvement (R50, R75 and R100) were used as statistical endpoint for efficacy.

[2] = test system: Outpatients with active rheumatoid arthritis; assay: Clinical study of Anti-Rheumatoid Arthritis Capsule (ARC) versus active control (MTX combination); details: for % of patients with 50% improvement (R50) / number of patients with 50% improvement (R50) / number of patients with 75% improvement (R75) / number of patients with 100% improvement (R100) / % of patients with 75% improvement (R75): 18 patients per group
Description: Anti-Rheumatoid Arthritis Capsule (ARC) is a capsule made of the powder form of the herbal composition of the present invention in accordance with the components and method shown in Example 1. To assess the basic efficacy and side effect of ARC, an open, randomized and active controlled clinical trial was carried out.
Outpatients with active rheumatoid arthritis, according to the classification criteria of the American Arthritis College, without other significant medical conditions were recruited. […] Safety and compliance were monitored every 2 weeks with complete outcome evaluation at 4, 8, and 12 weeks.
Thirty-six (36) typical active RA patients were selected and randomly divided into two groups. Observe group, 18 patients, was treated with ARC (4 capsules t.i.d., each capsule is about 0.3 g).
The improvement was denoted as either R50, R75 or R100 reflecting either an improvement to the 50%, 75%, or 100% level in the parameters based on the improvements of signs and symptoms including rest pain assessment, duration of morning stiffness, number of tender joint and the index of tenderness, number of swelling joints and the swelling index, grip strength, joint function, erythrocyte sedimentation rate, C reaction protein, and rheumatoid factor.

rheumatoid arthritis = details: general statement on RA therapy; cited from earlier work
[3] = 26 weeks, listed as combination of oral MTX and NSAID
[4] = 52 weeks, listed as combination of oral MTX and NSAID
[5] = 12 weeks, listed as active control

CN(Cc1cnc2nc(N)nc(N)c2n1)c1ccc(C(=O)N[C@@H](CCC(=O)O)C(=O)O)cc1 [MTX, Methotrexate]
time required to reach R50 [1]: 8-12 weeks
time required to reach R75 [1]: 20-32 weeks
time required to reach R100 [1]: 52 weeks
number of patients with 50% improvement (R50) ([1]; 4 weeks): 0
number of patients with 75% improvement (R75) ([1]; 4 weeks): 0
number of patients with 100% improvement (R100) ([1]; 4 weeks): 0
number of patients with 50% improvement (R50) ([1]; 8 weeks): 0
number of patients with 75% improvement (R75) ([1]; 8 weeks): 0
number of patients with 100% improvement (R100) ([1]; 8 weeks): 0
% of patients with 50% improvement (R50) ([1]; 12 weeks): (45) %
number of patients with 50% improvement (R50) ([1]; 12 weeks): 9
number of patients with 75% improvement (R75) ([1]; 12 weeks): 0
number of patients with 100% improvement (R100) ([1]; 12 weeks): 0
% of patients with 50% improvement (R50) ([1]; 12 weeks, listed as combination of oral MTX and NSAID): 45%
% of patients with 50% improvement (R50) ([1]; 26 weeks): (40) %
% of patients with 75% improvement (R75) ([1]; 26 weeks): (50) %
number of patients with 50% improvement (R50) ([1]; 26 weeks): 8
number of patients with 75% improvement (R75) ([1]; 26 weeks): 10
number of patients with 100% improvement (R100) ([1]; 26 weeks): 0
% of patients with 50% improvement (R50) [1, 3]: 40%
% of patients with 75% improvement (R75) [1, 3]: 50%
% of patients with 75% improvement (R75) ([1]; 52 weeks): (75) %
% of patients with 100% improvement (R100) ([1]; 52 weeks): (25) %
number of patients with 50% improvement (R50) ([1]; 52 weeks): 0
number of patients with 75% improvement (R75) ([1]; 52 weeks): 15
number of patients with 100% improvement (R100) ([1]; 52 weeks): 5
% of patients with 75% improvement (R75) [1, 4]: 75%
% of patients with 100% improvement (R100) [1, 4]: 25%
Time Required for Improvement, R50 ([1]; Table 5, value ± spread): 15.2 ± 5.43 week
Time Required for Improvement, R75 ([1]; Table 5, value ± spread): 27.7 ± 10.5 week
Time Required for Improvement, R100 ([1]; Table 5, value ± spread): 47.2 ± 10.7 week
% of patients with 50% improvement (R50) ([2]; 4 weeks): (11.1) %
number of patients with 50% improvement (R50) ([2]; 4 weeks): 2
number of patients with 75% improvement (R75) ([2]; 4 weeks): 0
number of patients with 100% improvement (R100) ([2]; 4 weeks): 0
% of patients with 50% improvement (R50) ([2]; 4 weeks, listed as active control): 11.1%
% of patients with 50% improvement (R50) ([2]; 8 weeks): (11.1) %
number of patients with 50% improvement (R50) ([2]; 8 weeks): 2
number of patients with 75% improvement (R75) ([2]; 8 weeks): 0
number of patients with 100% improvement (R100) ([2]; 8 weeks): 0
% of patients with 50% improvement (R50) ([2]; 8 weeks, listed as active control): 11.1%
patients who complained about stomachalgia ([2]; 12 weeks observation, 18 patients): 3 patients
% of patients with 50% improvement (R50) ([2]; 12 weeks): (55.5) %
% of patients with 75% improvement (R75) ([2]; 12 weeks): (11.1) %
number of patients with 50% improvement (R50) ([2]; 12 weeks): 10
number of patients with 75% improvement (R75) ([2]; 12 weeks): 2
% of patients with 50% improvement (R50) [2, 5]: 55.5%
% of patients with 75% improvement (R75) [2, 5]: 11.1%
time usually required to show some clinical effect (rheumatoid arthritis): 12-24 weeks

— US7553506B2, “Herbal compositions for prevention and treatment of rheumatic and inflammatory diseases and method of preparing the same” (Shenzhen Qianrenren Sci. & Tech. Development Co., priority 2004, dated 2009)
